From ChEMBL document CHEMBL3596151, “Elucidation of the in vitro and in vivo activities of bridged 1,2,4-trioxolanes, bridged 1,2,4,5-tetraoxanes, tricyclic monoperoxides, silyl peroxides, and hydroxylamine derivatives against Schistosoma mansoni” (Bioorg Med Chem, 2015)
Calls of active or inactive are those of the source. No cut-off for these calls is given here.

Tests used:
[1] = Selectivity index, ratio of IC50 for rat L6 cells to IC50 for adult Schistosoma mansoni
Schistosoma mansoni [2] = assay: Antischistosomal activity against newly transformed Schistosoma mansoni cercariae assessed as decrease in viability after 72 hrs by microscopic analysis; type: functional, organism-based
Schistosoma mansoni [3] = assay: Antischistosomal activity against adult Schistosoma mansoni assessed as decrease in viability after 72 hrs by microscopic analysis; type: functional, organism-based
L6 = assay: Cytotoxicity against rat L6 cells assessed as decrease in cell viability after 72 hrs by resazurin dye based fluorescence analysis; settings: for IC50: Rattus norvegicus, L6, 72 h; for Activity: rat, l6, 72 h
Schistosoma mansoni [4] = assay: Antischistosomal activity against Schistosoma mansoni strain Liberian cercariae infected in NMRI mouse assessed as reduction of worm burden in portal and mesenteric veins and liver at 400 mg/kg, po treated after 49 days of infection measured 16 to 21 days post treatment; type: functional
Schistosoma mansoni [5] = assay: Antischistosomal activity against adult Schistosoma mansoni assessed as decrease in viability at 25 ug/ml after 72 hrs by microscopic analysis; type: functional, organism-based
Schistosoma mansoni [6] = assay: Antischistosomal activity against newly transformed Schistosoma mansoni cercariae assessed as decrease in viability at 12.5 ug/ml after 72 hrs by microscopic analysis; type: functional, organism-based

In the case of C[C@]12C[C@](C34CC5CC(CC(C5)C3)C4)(OO1)OO2, the “Ratio IC50” value [1] is reported as under 0.2, the IC50 (Schistosoma mansoni [2]) is reported as 1.3 µM and the IC50 (Schistosoma mansoni [3]) is reported as 2 µM. For the same compound, the IC50 (L6) was under 0.4 µM.

For CC(=O)CCC1(Cc2ccc(Br)cc2)[C@]2(C)OO[C@@]1(C)OO2 (some centres undefined), the “Ratio IC50” value [1] was 0.4, the IC50 (Schistosoma mansoni [2]) was 1.3 µM and the IC50 (Schistosoma mansoni [3]) was 8.4 µM. It also gave an IC50 (L6) of 2.5 µM.

With CC(=O)CCC1(Cc2ccccc2)[C@]2(C)OO[C@@]1(C)OO2 (some centres undefined) the IC50 (Schistosoma mansoni [2]) was 1.6 µM, the IC50 (Schistosoma mansoni [3]) was 10.9 µM and the Activity (L6) was “Non-toxic”.

With CC(=O)[C@@]1(Cc2ccc(Cl)cc2)CC[C@]2(C)OO[C@@]1(C)O2 the IC50 (Schistosoma mansoni [2]) was 3.2 µM, the IC50 (Schistosoma mansoni [3]) was 11.2 µM and the Activity (L6) was “Non-toxic”.

With CC[C@]12OO[C@@]3(CC(C)C)OC(C)(CCC31)O2 the “Ratio IC50” value [1] was 5.7, the inhibition in vivo at 400 mg/kg (Schistosoma mansoni [4]) was 26.7% and the IC50 (Schistosoma mansoni [2]) was 2.7 µM. The IC50 (Schistosoma mansoni [3]) was 4.4 µM and the IC50 (L6) was 24.4 µM.

In the case of C[Si]1(C)CC[Si](C)(C)OOC2(CCCCCCCCCCC2)OO1, the inhibition (Schistosoma mansoni [5]) is reported as “inactive”, the IC50 (Schistosoma mansoni [2]) is reported as 7.2 µM and the Activity (L6) is reported as “Non-toxic”.

With CC(=O)[C@]1(Cc2ccc(Br)cc2)CC[C@]2(C)OO[C@@]1(C)O2 the “Ratio IC50” value [1] was 1.1, the IC50 (Schistosoma mansoni [2]) was 6.2 µM and the IC50 (Schistosoma mansoni [3]) was 6.6 µM. The IC50 (L6) was 7.3 µM.

With CC(=O)[C@]1(Cc2ccc([N+](=O)[O-])cc2)CC[C@]2(C)OO[C@@]1(C)O2 the “Ratio IC50” value [1] was 1.7, the IC50 (Schistosoma mansoni [2]) was 5.7 µM and the IC50 (Schistosoma mansoni [3]) was 7 µM. The IC50 (L6) was 22.7 µM.

For CC(C)C[C@@]12OO[C@]3(C)OC(C)(CCC31)O2, the “Ratio IC50” value [1] was 3, the inhibition in vivo at 400 mg/kg (Schistosoma mansoni [4]) was 0% and the IC50 (Schistosoma mansoni [2]) was 2 µM. It also gave an IC50 (Schistosoma mansoni [3]) of 2 µM and an IC50 (L6) of 4.9 µM.

For CCCC[C@]1(C(C)=O)CCC2(C)OOC1(C)O2 (single isomer, unassigned), the inhibition (Schistosoma mansoni [6]) was “inactive”, the IC50 (Schistosoma mansoni [3]) was 12.2 µM and the Activity (L6) was “Non-toxic”.

With CC(=O)[C@]1(Cc2ccc(C)cc2)CC[C@]2(C)OO[C@@]1(C)O2 the inhibition (Schistosoma mansoni [6]) was “inactive”, the IC50 (Schistosoma mansoni [3]) was 10 µM and the Activity (L6) was “Non-toxic”.

For CC(=O)[C@@]1(Cc2ccc([N+](=O)[O-])cc2)CC[C@]2(C)OO[C@@]1(C)O2, the IC50 (Schistosoma mansoni [2]) was 7.7 µM, the IC50 (Schistosoma mansoni [3]) was 22.8 µM and the Activity (L6) was “Non-toxic”.

In the case of CC(=O)[C@@]1(Cc2ccccc2)CC[C@]2(C)OO[C@@]1(C)O2, the IC50 (Schistosoma mansoni [2]) is reported as 5.6 µM, the IC50 (Schistosoma mansoni [3]) is reported as 10.3 µM and the Activity (L6) is reported as “Non-toxic”.

With CC(=O)[C@]1(Cc2ccc(Cl)cc2)CC[C@]2(C)OO[C@@]1(C)O2 the “Ratio IC50” value [1] was 1.3, the inhibition in vivo at 400 mg/kg (Schistosoma mansoni [4]) was 42.9% and the IC50 (Schistosoma mansoni [2]) was 2.8 µM. It also gave an IC50 (Schistosoma mansoni [3]) of 4.2 µM and an IC50 (L6) of 2.7 µM.

With CC(=O)[C@]1(Cc2ccccc2)CC[C@]2(C)OO[C@@]1(C)O2 the “Ratio IC50” value [1] was 2.9, the inhibition in vivo at 400 mg/kg (Schistosoma mansoni [4]) was 6.2% and the IC50 (Schistosoma mansoni [2]) was 0.4 µM. For the same compound, the IC50 (Schistosoma mansoni [3]) was 1.8 µM and the IC50 (L6) was 5.4 µM.

In the case of CC(=O)[C@@]1(Cc2ccc(Br)cc2)CC[C@]2(C)OO[C@@]1(C)O2, the “Ratio IC50” value [1] is reported as 1.6, the inhibition in vivo at 400 mg/kg (Schistosoma mansoni [4]) is reported as 44.3% and the IC50 (Schistosoma mansoni [2]) is reported as 2.2 µM. The IC50 (Schistosoma mansoni [3]) was 4.2 µM and the IC50 (L6) was 8.1 µM.

With CC[C@]12C[C@](C34CC5CC(CC(C5)C3)C4)(OO1)OO2 the “Ratio IC50” value [1] was under 0.2, the IC50 (Schistosoma mansoni [2]) was 1.8 µM and the IC50 (Schistosoma mansoni [3]) was 2 µM. The IC50 (L6) was under 0.4 µM.

With CC(=O)[C@@]1(Cc2ccc(C)cc2)CC[C@]2(C)OO[C@@]1(C)O2 the “Ratio IC50” value [1] was 7.4, the inhibition in vivo at 400 mg/kg (Schistosoma mansoni [4]) was 9.9% and the IC50 (Schistosoma mansoni [2]) was 12.2 µM. The IC50 (Schistosoma mansoni [3]) was 7.4 µM and the IC50 (L6) was 15.3 µM.

For CC1[C@]2(C)OO[C@@]1(C13CC4CC(CC(C4)C1)C3)OO2 (some centres undefined), the “Ratio IC50” value [1] was under 0.1, the IC50 (Schistosoma mansoni [2]) was 4 µM and the IC50 (Schistosoma mansoni [3]) was 3.9 µM. The IC50 (L6) was under 0.4 µM.

For CC(C)(C)C1CCC2(CC1)OO[Si](C)(C)CC[Si](C)(C)OO2, the inhibition (Schistosoma mansoni [5]) was “inactive”, the IC50 (Schistosoma mansoni [2]) was 4 µM and the Activity (L6) was “Non-toxic”.

For CC(C)C[C@]12OO[C@](C)(OO1)C2C12CC3CC(CC(C3)C1)C2 (some centres undefined), the “Ratio IC50” value [1] was 0.5, the IC50 (Schistosoma mansoni [2]) was 0.9 µM and the IC50 (Schistosoma mansoni [3]) was 1.8 µM. The IC50 (L6) was 1 µM.

With CC(=O)CCC1(Cc2ccc(Cl)cc2)[C@]2(C)OO[C@@]1(C)OO2 (some centres undefined) the IC50 (Schistosoma mansoni [2]) was 3.5 µM, the IC50 (Schistosoma mansoni [3]) was 15.4 µM and the Activity (L6) was “Non-toxic”.

In the case of CC(=O)CCC1(Cc2ccc(C)cc2)[C@]2(C)OO[C@@]1(C)OO2 (some centres undefined), the “Ratio IC50” value [1] is reported as 0.3, the IC50 (Schistosoma mansoni [2]) is reported as 5.2 µM and the IC50 (Schistosoma mansoni [3]) is reported as 9.8 µM. For the same compound, the IC50 (L6) was 2.5 µM.
